Tests used:
[1] = system: wildtype Wnt signaling cascade; test: HEK293 TOP assay (Super TopFlash luciferase reporter, Wnt-3a stimulated); format: cell-based; settings: Homo sapiens, HEK293, 16 h, HEK293 TOP reporter cells, Wnt3a at EC50, 16 hours
How it was run: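 Compound series (50 μM down to 15 nM, 3.16-fold) diluted from DMSO 50-fold into CAFTY buffer, pH 7.4, 2 mM Ca^2+, 0.01% BSA, applied to Wnt-3a-stimulated HEK293 TopFlash and FOP reporter lines in parallel. Cells seeded 10000/well 24 h before; luciferase signal measured.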

TNKS2 = molecular target: T1, TNKS2 (Homo sapiens, UniProt Q9H2K2); test: TNKS2 Assay B (auto-parsylation, [3H]-NAD+ SPA); format: biochemical; settings: 6 nM TNKS2, auto-parsylation, over night at room temperature
T1 construct: purchased BPS Bioscience, San Diego, USA 80572 (TNKS2 Histone Ribosylation Assay Kit)
T1 sequence (Q9H2K2 1-1166): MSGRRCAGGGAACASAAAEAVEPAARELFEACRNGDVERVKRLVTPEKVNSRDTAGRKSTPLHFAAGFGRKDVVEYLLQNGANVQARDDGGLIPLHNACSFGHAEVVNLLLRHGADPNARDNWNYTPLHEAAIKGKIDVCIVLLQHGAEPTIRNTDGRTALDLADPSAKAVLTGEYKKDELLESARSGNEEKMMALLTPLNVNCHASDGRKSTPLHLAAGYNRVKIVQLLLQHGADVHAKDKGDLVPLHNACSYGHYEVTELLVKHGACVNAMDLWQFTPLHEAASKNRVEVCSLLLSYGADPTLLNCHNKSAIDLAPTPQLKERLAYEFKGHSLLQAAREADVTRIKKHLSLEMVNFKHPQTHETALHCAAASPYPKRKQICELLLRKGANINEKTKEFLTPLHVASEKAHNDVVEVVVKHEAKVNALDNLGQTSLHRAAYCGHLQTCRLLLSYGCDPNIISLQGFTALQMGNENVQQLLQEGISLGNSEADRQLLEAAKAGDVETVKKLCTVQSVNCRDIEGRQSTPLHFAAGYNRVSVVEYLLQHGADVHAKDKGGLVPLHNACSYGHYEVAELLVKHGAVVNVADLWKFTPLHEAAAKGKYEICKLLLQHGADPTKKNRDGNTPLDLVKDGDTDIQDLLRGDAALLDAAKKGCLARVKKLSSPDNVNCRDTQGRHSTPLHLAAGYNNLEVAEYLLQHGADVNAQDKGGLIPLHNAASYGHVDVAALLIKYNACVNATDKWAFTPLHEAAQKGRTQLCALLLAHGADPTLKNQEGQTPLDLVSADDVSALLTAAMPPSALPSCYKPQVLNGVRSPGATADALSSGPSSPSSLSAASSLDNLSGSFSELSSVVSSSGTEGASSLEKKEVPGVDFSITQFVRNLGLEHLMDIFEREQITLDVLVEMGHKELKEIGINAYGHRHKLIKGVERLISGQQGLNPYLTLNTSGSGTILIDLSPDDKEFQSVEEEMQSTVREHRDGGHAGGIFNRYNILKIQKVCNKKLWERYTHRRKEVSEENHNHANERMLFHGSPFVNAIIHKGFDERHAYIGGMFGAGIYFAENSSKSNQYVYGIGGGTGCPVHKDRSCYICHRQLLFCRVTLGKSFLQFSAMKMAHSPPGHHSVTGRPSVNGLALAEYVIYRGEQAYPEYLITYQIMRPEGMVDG

[2] = system: HEK293 cells cotransfected with the FOP control vector; test: HEK293 FOP assay (control reporter with non-functional TCF elements); format: cell-based; settings: Homo sapiens, 16 hours
How it was run: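 Compound series from 50 μM down to 15 nM, prediluted in DMSO then 50-fold into CAFTY buffer (pH 7.4, 2 mM Ca2+, 0.01% BSA), tested alongside TOP cells on a Geneticin-selected HEK293 FOP line whose TCF elements are replaced by a random sequence; recombinant human Wnt-3a applied at 2500-5 ng/ml.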

| SMILES | IC50 [1] [nM] | IC50 (TNKS2) [nM] | IC50 [2] [nM] |
| --- | --- | --- | --- |
| Cc1cc(N2CCC[C@]3(CC[C@@H](NC(=O)c4[nH]cnc4C(N)=O)CC3)C2=O)c(Cl)cc1F [Example 309, N^5-[(trans)-2-(2-chloro-4-fluoro-5-methylphenyl)-1-oxo-2-azaspiro[5.5]undec-9-yl]-1H-imidazole-4,5-dicarboxamide] | 100 | 45 | ≥ 50000 |
| COCc1cc(C)nc2c(C(=O)N[C@H]3CC[C@@]4(CCN(c5c(F)cc(F)cc5Cl)C4=O)CC3)cnn12 [Example 241, N-[(trans)-2-(2-chloro-4,6-difluorophenyl)-1-oxo-2-azaspiro[4.5]dec-8-yl]-7-(methoxymethyl)-5-methylpyrazolo[1,5-a]pyrimidine-3-carboxamide] | 0.99 | 19 | 8100 |
| Cn1nc(C(=O)N[C@H]2CC[C@H](C(=O)Nc3ccc(F)cc3Cl)CC2)c2ccccc21 [Example 249, N-{trans-4-[(2-chloro-4-fluorophenyl)carbamoyl]cyclohexyl}-1-methyl-1H-indazole-3-carboxamide] | 14000 | > 10000 | ≥ 50000 |
| Cc1cc(C)n2ncc(C(=O)N[C@H]3CC[C@]4(CCN(c5ccc(F)cc5Cl)C4=O)CC3)c2n1 [Example 207, N-[(cis)-2-(2-chloro-4-fluorophenyl)-1-oxo-2-azaspiro[4.5]dec-8-yl]-5,7-dimethylpyrazolo[1,5-a]pyrimidine-3-carboxamide] | 3500 | > 10000 | ≥ 50000 |
| Cn1nc2ccccc2c1C(=O)N[C@H]1CC[C@H](C(=O)Nc2ccc(F)cc2Cl)CC1 [Example 250, N-{trans-4-[(2-chloro-4-fluorophenyl)carbamoyl]cyclohexyl}-2-methyl-2H-indazole-3-carboxamide] | ≥ 50000 | > 10000 | ≥ 50000 |
| O=C(N[C@H]1CC[C@H](C(=O)Nc2ccc(F)cc2Cl)CC1)c1c(Cl)nc2ccccn12 [Example 255, 2-chloro-N-{trans-4-[(2-chloro-4-fluorophenyl)carbamoyl]cyclohexyl}imidazo[1,2-a]pyridine-3-carboxamide] | ≥ 50000 | > 10000 | ≥ 50000 |
| COC1CN(C(=O)c2nc[nH]c2C(=O)N[C@H]2CC[C@@]3(CCN(c4ccc(F)cc4Cl)C3=O)CC2)C1 [Example 188, N-[(trans)-2-(2-chloro-4-fluorophenyl)-1-oxo-2-azaspiro[4.5]dec-8-yl]-4-[(3-methoxyazetidin-1-yl)carbonyl]-1H-imidazole-5-carboxamide] | 0.68 | 2.7 | ≥ 50000 |
| COCCc1cnc2c(C(=O)N[C@H]3CC[C@@]4(CCN(c5ccc(F)cc5Cl)C4=O)CC3)cnn2c1 [Example 237, N-[(trans)-2-(2-chloro-4-fluorophenyl)-1-oxo-2-azaspiro[4.5]dec-8-yl]-6-(2-methoxyethyl)pyrazolo[1,5-a]pyrimidine-3-carboxamide] | 0.14 | 8.9 | ≥ 50000 |
| O=C(N[C@H]1CC[C@@]2(CCN(c3ccc(F)cc3Cl)C2=O)CC1)c1[nH]cnc1C(=O)N1CC2(COC2)C1 [Example 194, N-[(trans)-2-(2-chloro-4-fluorophenyl)-1-oxo-2-azaspiro[4.5]dec-8-yl]-4-(2-oxa-6-azaspiro[3.3]hept-6-ylcarbonyl)-1H-imidazole-5-carboxamide] | 1.5 | 4.8 | ≥ 50000 |
| O=C(N[C@H]1CC[C@@]2(CCN(c3ccc(F)cc3Cl)C2=O)CC1)c1cnn2ccc(N3CCOCC3)nc12 [Example 231, N-[(trans)-2-(2-chloro-4-fluorophenyl)-1-oxo-2-azaspiro[4.5]dec-8-yl]-5-(morpholin-4-yl)pyrazolo[1,5-a]pyrimidine-3-carboxamide] | 8 | 3.8 | ≥ 500 |
| O=C(N[C@H]1CC[C@@]2(CCN(c3ccccc3Cl)C2=O)CC1)c1[nH]cnc1C(=O)N1CC2(COC2)C1 [Example 263, N-[(trans)-2-(2-chlorophenyl)-1-oxo-2-azaspiro[4.5]dec-8-yl]-4-(2-oxa-6-azaspiro[3.3]hept-6-ylcarbonyl)-1H-imidazole-5-carboxamide] | 2.7 | 11 | ≥ 50000 |
| Cc1cc(C)n2ncc(C(=O)N[C@H]3CC[C@@]4(CCN(c5ccccc5)C4=O)CC3)c2n1 [Example 239, 5,7-dimethyl-N-[(trans)-1-oxo-2-phenyl-2-azaspiro[4.5]dec-8-yl]pyrazolo[1,5-a]pyrimidine-3-carboxamide] | 73 | 570 | ≥ 500 |
| Cc1ccnc2c(C(=O)N[C@H]3CC[C@@]4(CCN(c5ccccc5Cl)C4=O)CC3)cnn12 [Example 273, N-[(trans)-2-(2-chlorophenyl)-1-oxo-2-azaspiro[4.5]dec-8-yl]-7-methylpyrazolo[1,5-a]pyrimidine-3-carboxamide] | 1.9 | 11 | ≥ 50000 |

The next lines start with results.

| IC50 [1] [nM] | IC50 (TNKS2) [nM] | SMILES | IC50 [2] [nM] |
| --- | --- | --- | --- |
| 14 | 43 | O=C(N[C@H]1CC[C@@]2(CCN(c3ccc(F)cc3Cl)C2=O)CC1)c1cnc2c(NCCC(F)(F)F)cc(Cl)nn12 [Example 349, 6-chloro-N-[(trans)-2-(2-chloro-4-fluorophenyl)-1-oxo-2-azaspiro[4.5]dec-8-yl]-8-[(3,3,3-trifluoropropyl)amino]imidazo[1,2-b]pyridazine-3-carboxamide] | ≥ 50000 |
| 3100 | > 10000 | CCNC(=O)c1nc[nH]c1C(=O)N[C@H]1CC[C@]2(CCN(c3ccc(F)cc3Cl)C2=O)CC1 [Example 339, N^5-[(cis)-2-(2-chloro-4-fluorophenyl)-1-oxo-2-azaspiro[4.5]dec-8-yl]-N^4-ethyl-1H-imidazole-4,5-dicarboxamide] | ≥ 50000 |
| 6.3 | 22 | O=C(N[C@H]1CC[C@@]2(CCCN(c3cc(F)c(F)cc3Cl)C2=O)CC1)c1cnc2cccnn12 [Example 314, N-[(trans)-2-(2-chloro-4,5-difluorophenyl)-1-oxo-2-azaspiro[5.5]undec-9-yl]imidazo[1,2-b]pyridazine-3-carboxamide] | ≥ 500 |
| 2900 | > 10000 | COCCNC(=O)c1nc[nH]c1C(=O)N[C@H]1CC[C@]2(CCN(c3ccc(F)cc3Cl)C2=O)CC1 [Example 341, N^5-[(cis)-2-(2-chloro-4-fluorophenyl)-1-oxo-2-azaspiro[4.5]dec-8-yl]-N^4-(2-methoxyethyl)-1H-imidazole-4,5-dicarboxamide] | ≥ 50000 |
| 3.4 | 8.4 | CC1C[C@]2(CC[C@@H](NC(=O)c3cnn4cccnc34)CC2)C(=O)N1c1ccc(F)cc1Cl (mixture of isomers) [Example 355, N-[(trans)-2-(2-chloro-4-fluorophenyl)-3-methyl-1-oxo-2-azaspiro[4.5]dec-8-yl]pyrazolo[1,5-a]pyrimidine-3-carboxamide (mixture of isomers at C3)] | ≥ 50000 |
| 5.7 | 41 | Cc1c(C(C)N(C)C)cnc2c(C(=O)N[C@H]3CC[C@@]4(CCN(c5ccc(F)cc5Cl)C4=O)CC3)cnn12 (mixture of isomers) [Example 358, N-[(trans)-2-(2-chloro-4-fluorophenyl)-1-oxo-2-azaspiro[4.5]dec-8-yl]-6-[1-(dimethylamino)ethyl]-7-methylpyrazolo[1,5-a]pyrimidine-3-carboxamide (racemate)] | ≥ 50000 |
| 3.9 | 33 | COC(=O)c1ccc(N2CC[C@]3(CC[C@@H](NC(=O)c4cnn5cccnc45)CC3)C2=O)c(Cl)c1 [Example 362, methyl 3-chloro-4-{(trans)-1-oxo-8-[(pyrazolo[1,5-a]pyrimidin-3-ylcarbonyl)amino]-2-azaspiro[4.5]dec-2-yl}benzoate] | 31000 |
